Blank lines part the entries; values can stand above or below the compound they belong to.
Experiments:
[1] = biological target: T1, 5-hydroxytryptamine receptor 1A (Homo sapiens, UniProt P08908); experiment: Binding affinity against 5-hydroxytryptamine 1A receptor
T1 sequence (P08908 whole entry): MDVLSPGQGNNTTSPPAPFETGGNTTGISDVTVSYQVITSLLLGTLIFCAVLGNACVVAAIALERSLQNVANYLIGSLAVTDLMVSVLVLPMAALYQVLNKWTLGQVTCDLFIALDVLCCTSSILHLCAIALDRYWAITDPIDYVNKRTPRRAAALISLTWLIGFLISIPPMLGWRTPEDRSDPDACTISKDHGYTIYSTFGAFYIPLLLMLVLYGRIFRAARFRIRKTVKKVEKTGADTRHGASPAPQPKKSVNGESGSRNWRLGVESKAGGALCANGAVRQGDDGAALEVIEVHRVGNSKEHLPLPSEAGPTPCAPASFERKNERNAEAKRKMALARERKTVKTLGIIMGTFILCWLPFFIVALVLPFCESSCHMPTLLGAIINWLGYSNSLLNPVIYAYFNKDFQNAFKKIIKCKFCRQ

Rattus norvegicus [2] = experiment: Compound was measured for its antipsychotic activity in the rat conditioned avoidance test, at a dose of 15 mg/kg compound administered perorally; format: functional; settings: route oral
[3] = biological target: T1, 5-hydroxytryptamine receptor 1A; experiment: Compound was measured […] for its binding affinity at 5-hydroxytryptamine 1A receptor using [3H]8-OH-DPAT as radioligand
[4] = biological target: T2, Adrenergic receptor alpha-1 (Homo sapiens, UniProt P35348+P25100+P35368); experiment: Compound was measured […] for its binding affinity at Alpha-1 adrenergic receptor using [3H]prazosin as radioligand.
T2 sequence (P35348 whole entry): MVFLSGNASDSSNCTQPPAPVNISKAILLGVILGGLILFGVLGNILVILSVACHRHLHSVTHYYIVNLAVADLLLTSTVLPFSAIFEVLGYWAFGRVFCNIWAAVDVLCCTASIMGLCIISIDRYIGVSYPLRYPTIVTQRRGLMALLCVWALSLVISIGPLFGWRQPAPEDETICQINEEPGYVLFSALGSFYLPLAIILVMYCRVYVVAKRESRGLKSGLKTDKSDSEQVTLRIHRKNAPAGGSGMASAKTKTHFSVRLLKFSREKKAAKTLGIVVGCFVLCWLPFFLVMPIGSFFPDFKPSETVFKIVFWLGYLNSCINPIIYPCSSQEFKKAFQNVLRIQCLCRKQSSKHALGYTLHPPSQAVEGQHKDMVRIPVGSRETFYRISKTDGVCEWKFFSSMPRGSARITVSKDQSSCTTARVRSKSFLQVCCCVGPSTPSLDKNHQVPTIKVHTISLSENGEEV
T2 sequence (P25100 whole entry): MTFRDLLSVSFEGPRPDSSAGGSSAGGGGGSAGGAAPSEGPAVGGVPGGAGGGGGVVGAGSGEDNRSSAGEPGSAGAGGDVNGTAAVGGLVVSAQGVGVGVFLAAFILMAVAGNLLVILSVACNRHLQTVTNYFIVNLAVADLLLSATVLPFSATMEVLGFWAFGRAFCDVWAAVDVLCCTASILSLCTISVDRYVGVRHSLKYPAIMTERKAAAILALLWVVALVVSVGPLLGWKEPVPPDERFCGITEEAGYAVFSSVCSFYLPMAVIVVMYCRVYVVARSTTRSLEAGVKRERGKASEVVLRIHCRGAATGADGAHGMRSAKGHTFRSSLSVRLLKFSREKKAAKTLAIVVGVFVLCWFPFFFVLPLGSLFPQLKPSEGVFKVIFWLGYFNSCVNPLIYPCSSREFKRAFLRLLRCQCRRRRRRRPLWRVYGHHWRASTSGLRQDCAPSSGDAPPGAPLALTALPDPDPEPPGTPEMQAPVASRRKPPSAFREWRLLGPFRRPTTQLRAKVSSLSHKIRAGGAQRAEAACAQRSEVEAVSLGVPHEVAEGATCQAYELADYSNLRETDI
T2 sequence (P35368 whole entry): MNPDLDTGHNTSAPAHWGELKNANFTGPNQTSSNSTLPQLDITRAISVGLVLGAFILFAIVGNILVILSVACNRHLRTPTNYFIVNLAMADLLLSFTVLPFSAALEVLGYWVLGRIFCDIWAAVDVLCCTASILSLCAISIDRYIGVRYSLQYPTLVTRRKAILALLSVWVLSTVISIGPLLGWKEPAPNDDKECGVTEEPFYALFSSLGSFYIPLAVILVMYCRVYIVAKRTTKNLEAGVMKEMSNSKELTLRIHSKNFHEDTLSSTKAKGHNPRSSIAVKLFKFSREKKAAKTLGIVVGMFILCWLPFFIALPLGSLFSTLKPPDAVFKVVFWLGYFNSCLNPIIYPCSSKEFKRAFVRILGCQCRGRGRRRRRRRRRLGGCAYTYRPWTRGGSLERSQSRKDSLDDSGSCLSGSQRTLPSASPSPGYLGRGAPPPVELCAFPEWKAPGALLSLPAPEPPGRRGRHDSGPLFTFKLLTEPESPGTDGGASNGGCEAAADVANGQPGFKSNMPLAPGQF

[5] = biological target: 5-hydroxytryptamine receptor 5B (Rattus norvegicus, UniProt P35365); experiment: Binding affinity against serotonin receptor
D(3) dopamine receptor [6] = biological target: T3, D(3) dopamine receptor (Homo sapiens, UniProt P35462)
[7] = biological target: D(1A) dopamine receptor (Homo sapiens) (UniProt P21728); experiment: Compound was measured for its binding affinity at Dopamine receptor D1 at a concentration of 10 uM using [3H]SCH-23390 as radioligand
Rattus norvegicus [8] = experiment: Compound was measured for its antipsychotic activity in the rat conditioned avoidance test, at a dose of 15 mg/kg administered perorally; format: functional; settings: route oral
[9] = biological target: Serotonin 3 (5-HT3) receptor (Homo sapiens) (UniProt P46098+A5X5Y0+O95264+Q70Z44+Q8WXA8); experiment: Compound was measured for its binding affinity at 5-hydroxytryptamine 3 receptor at a concentration of 10 uM using [3H]BRL-43694 as radioligand; format: protein-complex assay
[10] = biological target: 5-hydroxytryptamine receptor 1D (Homo sapiens) (UniProt P28221); experiment: Compound was measured for its binding affinity at 5-hydroxytryptamine 1D receptor at a concentration of 10 uM using [3H]5-HT as radioligand
[11] = biological target: T4, 5-hydroxytryptamine receptor 2C (Homo sapiens) (UniProt P28335); experiment: Compound was measured for its binding affinity at 5-hydroxytryptamine 1C receptor at a concentration of 100 nM using [3H]mesulergine as radioligand
T4 sequence (whole entry): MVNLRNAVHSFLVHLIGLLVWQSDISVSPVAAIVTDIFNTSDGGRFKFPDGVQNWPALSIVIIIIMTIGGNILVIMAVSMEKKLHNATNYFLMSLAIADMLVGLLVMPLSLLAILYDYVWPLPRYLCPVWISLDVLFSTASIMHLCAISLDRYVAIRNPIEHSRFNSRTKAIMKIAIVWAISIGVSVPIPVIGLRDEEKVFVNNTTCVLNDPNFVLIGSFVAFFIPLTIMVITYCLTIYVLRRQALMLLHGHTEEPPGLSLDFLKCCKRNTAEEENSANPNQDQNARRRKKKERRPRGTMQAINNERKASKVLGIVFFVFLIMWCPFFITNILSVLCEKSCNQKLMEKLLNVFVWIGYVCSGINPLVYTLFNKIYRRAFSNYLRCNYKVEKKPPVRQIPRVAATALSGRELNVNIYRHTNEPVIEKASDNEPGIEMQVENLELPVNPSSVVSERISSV

D(2) dopamine receptor = D(2) dopamine receptor (Homo sapiens, UniProt P14416)
Description: Compound was measured in vivo for its binding affinity at Dopamine receptor D2 using [3H]spiperone as radioligand.

[12] = biological target: Serotonin 2 (5-HT2) receptor (Homo sapiens) (UniProt P41595+P28223+P28335); experiment: Compound was measured for its binding affinity at 5-hydroxytryptamine 2 receptor at a concentration of 10 uM using [3H]ketanserin as radioligand; format: protein assay
D(3) dopamine receptor [13] = biological target: T3, D(3) dopamine receptor; experiment: Compound was measured […] for its inhibition of Dopamine receptor D3 at a concentration of 100 nM
[14] = biological target: 5-hydroxytryptamine receptor 1B (Homo sapiens) (UniProt P28222); experiment: Compound was measured for its binding affinity at 5-hydroxytryptamine 1B receptor at a concentration of 100 nM using [125I]CYP as radioligand
Rattus norvegicus [15] = experiment: Compound was measured for its antipsychotic activity in the rat conditioned avoidance test at a dose of 15 mg/kg administered perorally; format: functional; settings: route oral

Serotonin 2 (5-HT2) receptor (Homo sapiens), sequence (P28223 whole entry, looked up, one chain of several): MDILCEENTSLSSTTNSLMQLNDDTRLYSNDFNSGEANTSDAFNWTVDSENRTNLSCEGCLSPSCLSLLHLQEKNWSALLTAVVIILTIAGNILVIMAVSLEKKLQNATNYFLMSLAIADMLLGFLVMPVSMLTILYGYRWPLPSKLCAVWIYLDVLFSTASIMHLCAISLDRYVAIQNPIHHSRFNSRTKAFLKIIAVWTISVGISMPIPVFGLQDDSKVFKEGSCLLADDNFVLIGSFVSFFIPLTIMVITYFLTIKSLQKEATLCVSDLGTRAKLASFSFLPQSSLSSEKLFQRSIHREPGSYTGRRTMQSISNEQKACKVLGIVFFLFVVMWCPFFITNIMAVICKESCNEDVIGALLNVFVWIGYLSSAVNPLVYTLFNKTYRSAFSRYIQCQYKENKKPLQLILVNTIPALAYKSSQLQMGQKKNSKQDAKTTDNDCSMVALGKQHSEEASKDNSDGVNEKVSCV
Serotonin 2 (5-HT2) receptor (Homo sapiens), sequence (P41595 whole entry, looked up, one chain of several): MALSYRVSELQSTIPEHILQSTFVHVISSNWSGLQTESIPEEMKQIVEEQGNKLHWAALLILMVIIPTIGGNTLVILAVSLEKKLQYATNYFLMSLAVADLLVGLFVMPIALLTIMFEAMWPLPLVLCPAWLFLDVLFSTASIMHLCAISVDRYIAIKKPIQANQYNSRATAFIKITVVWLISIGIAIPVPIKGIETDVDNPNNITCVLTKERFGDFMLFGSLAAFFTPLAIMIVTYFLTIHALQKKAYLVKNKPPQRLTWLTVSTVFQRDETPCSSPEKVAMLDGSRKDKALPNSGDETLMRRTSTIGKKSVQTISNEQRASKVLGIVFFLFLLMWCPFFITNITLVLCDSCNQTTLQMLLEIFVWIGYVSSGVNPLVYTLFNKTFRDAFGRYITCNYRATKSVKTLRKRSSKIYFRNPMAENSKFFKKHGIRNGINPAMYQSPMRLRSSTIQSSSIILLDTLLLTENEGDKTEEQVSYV
5-hydroxytryptamine receptor 1B (Homo sapiens), sequence (P28222 whole entry): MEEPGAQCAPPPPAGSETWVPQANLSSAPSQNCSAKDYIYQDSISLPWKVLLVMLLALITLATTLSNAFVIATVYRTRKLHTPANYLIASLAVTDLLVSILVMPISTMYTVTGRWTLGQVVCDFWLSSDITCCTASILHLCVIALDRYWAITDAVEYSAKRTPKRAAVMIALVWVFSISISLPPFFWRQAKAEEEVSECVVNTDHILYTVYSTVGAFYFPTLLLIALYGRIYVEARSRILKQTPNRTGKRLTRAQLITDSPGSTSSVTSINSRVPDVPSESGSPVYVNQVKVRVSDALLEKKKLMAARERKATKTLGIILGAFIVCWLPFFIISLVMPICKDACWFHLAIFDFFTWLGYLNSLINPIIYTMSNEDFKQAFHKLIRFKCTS
5-hydroxytryptamine receptor 1D (Homo sapiens), sequence (P28221 whole entry): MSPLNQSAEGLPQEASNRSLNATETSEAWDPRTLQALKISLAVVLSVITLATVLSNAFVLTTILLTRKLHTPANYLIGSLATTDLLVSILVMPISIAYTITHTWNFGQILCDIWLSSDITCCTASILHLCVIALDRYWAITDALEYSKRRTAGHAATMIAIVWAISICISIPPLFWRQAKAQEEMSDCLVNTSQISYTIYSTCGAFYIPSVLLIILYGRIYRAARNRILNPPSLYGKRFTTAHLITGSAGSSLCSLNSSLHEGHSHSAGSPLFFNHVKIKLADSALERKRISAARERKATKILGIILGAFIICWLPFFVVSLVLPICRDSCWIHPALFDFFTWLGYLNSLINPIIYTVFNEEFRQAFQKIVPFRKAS
D(2) dopamine receptor, sequence (P14416 whole entry): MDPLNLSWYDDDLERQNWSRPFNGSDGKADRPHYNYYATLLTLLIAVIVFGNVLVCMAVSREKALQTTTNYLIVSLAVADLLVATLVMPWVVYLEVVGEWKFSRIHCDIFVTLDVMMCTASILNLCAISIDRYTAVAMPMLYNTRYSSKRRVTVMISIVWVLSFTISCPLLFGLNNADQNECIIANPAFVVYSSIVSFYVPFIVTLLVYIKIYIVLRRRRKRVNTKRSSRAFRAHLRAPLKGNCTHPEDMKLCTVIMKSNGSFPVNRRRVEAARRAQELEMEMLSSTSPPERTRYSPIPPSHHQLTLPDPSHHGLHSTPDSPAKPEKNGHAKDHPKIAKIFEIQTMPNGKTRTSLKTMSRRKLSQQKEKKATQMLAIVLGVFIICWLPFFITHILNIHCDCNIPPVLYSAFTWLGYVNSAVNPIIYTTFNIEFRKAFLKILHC
T3 sequence (P35462 whole entry): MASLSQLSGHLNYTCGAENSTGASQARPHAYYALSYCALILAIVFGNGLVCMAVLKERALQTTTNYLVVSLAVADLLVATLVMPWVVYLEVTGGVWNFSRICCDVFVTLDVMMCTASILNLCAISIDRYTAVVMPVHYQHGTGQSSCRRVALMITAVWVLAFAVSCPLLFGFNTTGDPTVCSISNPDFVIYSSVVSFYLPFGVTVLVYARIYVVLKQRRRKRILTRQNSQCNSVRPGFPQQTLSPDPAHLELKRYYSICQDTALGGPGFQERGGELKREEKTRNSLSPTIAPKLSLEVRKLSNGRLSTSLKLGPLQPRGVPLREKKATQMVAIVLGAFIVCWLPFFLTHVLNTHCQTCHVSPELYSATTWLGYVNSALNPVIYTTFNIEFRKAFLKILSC
D(1A) dopamine receptor (Homo sapiens), sequence (P21728 whole entry): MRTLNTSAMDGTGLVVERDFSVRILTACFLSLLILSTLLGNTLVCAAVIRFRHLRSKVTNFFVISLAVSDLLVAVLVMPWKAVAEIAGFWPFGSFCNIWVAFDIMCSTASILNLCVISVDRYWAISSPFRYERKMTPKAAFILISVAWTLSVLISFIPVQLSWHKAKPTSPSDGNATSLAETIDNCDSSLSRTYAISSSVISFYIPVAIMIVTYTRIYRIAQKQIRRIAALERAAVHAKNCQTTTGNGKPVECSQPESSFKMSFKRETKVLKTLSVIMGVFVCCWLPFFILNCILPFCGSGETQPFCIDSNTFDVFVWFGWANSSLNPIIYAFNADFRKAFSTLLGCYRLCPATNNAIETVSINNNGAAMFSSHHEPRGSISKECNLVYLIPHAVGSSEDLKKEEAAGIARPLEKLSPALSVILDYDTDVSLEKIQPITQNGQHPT
5-hydroxytryptamine receptor 5B, sequence (P35365 whole entry): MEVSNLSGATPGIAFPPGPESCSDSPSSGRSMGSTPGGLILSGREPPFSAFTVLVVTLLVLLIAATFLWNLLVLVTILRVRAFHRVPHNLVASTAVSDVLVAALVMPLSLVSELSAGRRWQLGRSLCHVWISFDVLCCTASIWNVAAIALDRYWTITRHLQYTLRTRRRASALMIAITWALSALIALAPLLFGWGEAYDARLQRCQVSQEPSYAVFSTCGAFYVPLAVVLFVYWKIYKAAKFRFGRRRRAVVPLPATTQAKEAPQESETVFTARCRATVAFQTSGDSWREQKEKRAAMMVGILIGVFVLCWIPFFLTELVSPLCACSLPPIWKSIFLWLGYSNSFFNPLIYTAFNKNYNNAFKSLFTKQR

Compound: CCCN1CCC[C@@H]2c3cc(O)ccc3CC[C@H]21
Ki [1]: 3.87 nM

Ki [3]: 3.4 nM | Ki [4]: 1.7 nM
Compound: CC(C)Oc1ccccc1N1CCN(Cc2cccc(C(=O)N3CCc4ccccc43)c2)CC1
inhibition in vivo at 15 mg/kg (Rattus norvegicus [2]): -96%

Ki [1]: 74 nM
Compound: O=C1c2ccccc2C(=O)N1CCCCN1CCn2c(cc3ccccc32)C1

Ki [1]: 0.89 nM
Compound: COc1cccc2c1C1CCN(CCCN3C(=O)c4ccccc4S3(=O)=O)C[C@H]1C2 (stereo partly drawn)

Compound: CCCCCCN1CCc2c([nH]c3ccccc23)C1
Ki [1]: 79 nM

Compound: FC(F)(F)c1ccc2c(c1)N1CCNCC1CC2 (stereo not drawn)
Ki [5]: 67 nM

Compound: CC(C)Oc1ccccc1N1CCN(Cc2cccc(C(=O)N3CCCCC3)c2)CC1 [MAZAPERTINE]
Ki (D(3) dopamine receptor [6]): 1.8 nM

Compound: O=C(c1cccc(CN2CCN3c4ccccc4OCC3C2)c1)N1CCc2ccccc21 (stereo not drawn)
Ki [3]: 6.5 nM | inhibition [7]: 42.4% | inhibition in vivo at 15 mg/kg (Rattus norvegicus [8]): -20% | inhibition [9]: 12.5% | inhibition [10]: 58.9% | inhibition [11]: -2.8% | Ki (D(2) dopamine receptor): > 1000 nM | inhibition [12]: 7.5% | inhibition (D(3) dopamine receptor [13]): 54% | inhibition [14]: 8.1% | Ki [4]: > 1000 nM

Compound: O=C(c1cccc(CN2CCc3c([nH]c4ccccc34)C2)c1)N1CCCCC1
Ki [3]: 13 nM | inhibition [7]: 23.7% | inhibition in vivo at 15 mg/kg (Rattus norvegicus [8]): -74% | inhibition [9]: 13.6% | inhibition [10]: 74.7% | inhibition [11]: 5.5% | Ki (D(2) dopamine receptor): 374 nM | inhibition [12]: 18% | inhibition (D(3) dopamine receptor [13]): 27% | inhibition [14]: 1% | Ki [4]: 36 nM

Compound: O=C(c1cccc(CN2CCN3c4ccccc4OCC3C2)c1)N1CCCCC1 (stereo not drawn)
Ki [3]: 12 nM | inhibition [7]: 14.7% | inhibition [9]: 5.1% | inhibition [10]: 63.8% | inhibition [11]: 5.6% | Ki (D(2) dopamine receptor): > 1000 nM | inhibition [12]: 7.5% | inhibition in vivo at 15 mg/kg (Rattus norvegicus [15]): -49% | inhibition (D(3) dopamine receptor [13]): 64% | inhibition [14]: 3.4% | Ki [4]: 200 nM

Compound: O=C(c1cccc(CN2CCc3c([nH]c4ccccc34)C2)c1)N1CCc2ccccc21
Ki [3]: 9.2 nM | inhibition [7]: 40.8% | inhibition in vivo at 15 mg/kg (Rattus norvegicus [8]): -37% | inhibition [9]: 22.6% | inhibition [10]: 86.1% | inhibition [11]: 8.7% | Ki (D(2) dopamine receptor): > 1000 nM | inhibition [12]: 29.9% | inhibition (D(3) dopamine receptor [13]): 56% | inhibition [14]: 8.8% | Ki [4]: 2.9 nM

Reference: ChEMBL document CHEMBL1129884, “Hindered rotation congeners of mazapertine: High affinity ligands for the 5-HT1A receptor” (Bioorg Med Chem Lett, 1997)
